Biological target: T1, hPRB and TIF-2 (Homo sapiens, UniProt P06401)
T1 construct: expressed in transfected cells; host or cells: HEK 293T
T1 sequence (P06401 1-933): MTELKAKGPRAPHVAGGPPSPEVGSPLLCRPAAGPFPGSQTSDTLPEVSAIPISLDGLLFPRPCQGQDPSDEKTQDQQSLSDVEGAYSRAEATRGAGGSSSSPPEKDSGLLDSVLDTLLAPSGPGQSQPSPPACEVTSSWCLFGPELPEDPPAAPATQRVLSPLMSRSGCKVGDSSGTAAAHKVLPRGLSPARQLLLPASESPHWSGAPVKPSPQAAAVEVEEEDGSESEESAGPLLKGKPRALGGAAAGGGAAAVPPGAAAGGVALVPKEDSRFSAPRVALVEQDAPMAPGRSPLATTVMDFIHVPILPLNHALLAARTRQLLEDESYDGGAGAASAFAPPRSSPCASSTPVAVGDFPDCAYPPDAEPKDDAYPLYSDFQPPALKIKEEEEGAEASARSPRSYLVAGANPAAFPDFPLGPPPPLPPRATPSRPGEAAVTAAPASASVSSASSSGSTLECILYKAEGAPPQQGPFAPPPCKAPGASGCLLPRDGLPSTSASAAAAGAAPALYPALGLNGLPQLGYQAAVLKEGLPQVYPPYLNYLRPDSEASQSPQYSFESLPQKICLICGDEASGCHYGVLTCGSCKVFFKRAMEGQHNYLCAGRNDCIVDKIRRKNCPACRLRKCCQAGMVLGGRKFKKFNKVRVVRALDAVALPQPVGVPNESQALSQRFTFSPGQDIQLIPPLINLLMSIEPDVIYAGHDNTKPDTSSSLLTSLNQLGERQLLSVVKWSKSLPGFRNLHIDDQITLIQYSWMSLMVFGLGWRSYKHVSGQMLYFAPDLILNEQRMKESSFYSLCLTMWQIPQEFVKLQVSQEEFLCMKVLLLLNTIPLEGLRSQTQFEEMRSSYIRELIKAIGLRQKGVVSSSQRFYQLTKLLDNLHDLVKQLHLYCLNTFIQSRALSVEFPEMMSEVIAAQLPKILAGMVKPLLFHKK
Assay: Mammalian two hybrid assay, recruitment of co-activator TIF-2 (TIF-2-Nter, TIF-2-NterRID) by hPRB
Type: cell-based
Conditions: HEK293T; for recruitment of co-activator TIF-2 sequences by hPRB upon ligand binding: TIF-2-Nter and TIF-2-NterRID, FIGS. 15-17; for inhibition of progesterone induced TIF-2 recruitment by hPRB: two hybrid, FIG. 18
Protocol: Mammalian Two Hybrid Assays.
To investigate whether hPR was able to recruit transcriptional corepressors upon APRn binding, two hybrid assays have been performed in HEK 293T cells. Cell transfection were carried out according to the protocol used for the PR transactivation assays, with 1 μg of pGAL4-SMRT or pGAL4-NcoR, 2.5 μg of the PR expression vector pV16-PR and 5 μg of the reporter pG5-luc. The plasmid pGAL4-SMRT and pGAL4-NcoR, provided by P. Balaguer, encode the fusion protein between the GAL4 DNA-binding domain (GAL4DBD) and the receptor interacting domain (RID) of the corepressor […], respectively. The expression vector pV16PR encodes the VP16 activation domain of herpes simplex virus fused to the entire hPR and pG5-luc, provided by P. Fuller, encodes the luciferase gene driven by a GAL4-responsive promoter. […] Cell transfection were carried out according to the PR transactivation assays, by using 2 μg of pM-TIF2/Nter-RID or […], 2 μg of the expression vector pV16PR and 5 μg of the reporter pG5luc. The plasmids pM-TIF2/Nter-RID encodes the fusion proteins between the GAL4 DBD and the 1-867 TIF2 sequence corresponding to the Nter and RID domains. The plasmids pMTIF2-Nter encodes the fusion proteins between the GAL4 DBD and the 1-623 TIF2 sequence corresponding to the Nter domain. After 16 h incubation, the transfected cells were washed with PBS containing 2.5 mM EDTA, trypsinized and replated in 24-well plates. […] Cells were lysed and the luciferase and activities were quantified by using a Mithras reader microplates (Berthold).
Both agonist- and antagonist-bound PR regulate gene transcription with the assistance of transcriptional co-repressors (NCoR, SMRT) or co-activators (namely, TIF-2). To characterize the mechanism by which APRn inactivate hPRB, the capacity of hPRB to recruit transcriptional co-regulators upon APRn binding has been evaluated. With this aim, mammalian two-hybrid assays in HEK293T cells have been performed by using two series of fusion proteins: (i) the VP16 activation domain of herpes simplex virus fused to the entire hPRB and (ii) the GAL4 DNA-binding domain (DBD) fused to the receptor interacting domain (RID) of corepressors (NCoR and SMRT), the GAL4 DBD fused to the 1-867 sequence of the co-activator TIF2 (corresponding to the Nter and RID domains), the GAL4 DBD fused to the 1-623 sequence of TIF2 (corresponding to the Nter domain).
Further, the capacity of hPRB to bind the co-activator TIF-2 was examined. The two-hybrid assays were performed with the TIF-2 sequence encompassing its N-ter region alone (TIF-2-Nter) or the sequence including the N-ter and the RID regions (TIF-2-NterRID).

| Structure (SMILES) | recruitment of co-activator TIF-2 sequences by hPRB upon ligand binding | inhibition of progesterone induced TIF-2 recruitment by hPRB |
| --- | --- | --- |
| C[C@]12CCC3C(CC=C4C[C@@H](F)CC[C@@H]43)C1CCC2=O (stereo partly drawn) [APR-47, 3β-Fluoro-19-nor-androst-5-en-17-one] | unable to recruit the two TIF-2 sequences | able to inhibit the progesterone induced TIF-2 recruitment |
| CC#C[C@]1(O)CCC2C3CC[C@H]4CCCC[C@@H]4C3CC[C@@]21C (stereo partly drawn) [APR-54, 17α-(1-Propynyl)-19-nor-5-androstan-17β-ol] | unable to recruit the two TIF-2 sequences | able to inhibit the progesterone induced TIF-2 recruitment |
| CC(=O)[C@H]1CC[C@H]2[C@@H]3CC=C4C[C@@H](F)CC[C@]4(C)[C@H]3CC[C@]12C [APR-16, 3β-Fluoropregn-5-en-20-one] | unable to recruit the two TIF-2 sequences | able to inhibit the progesterone induced TIF-2 recruitment |

Reference: US20130203718A1 (priority 2010, published 2013)
